Experimental data: US9084779B2, “Conjugates of nitroimidazoles and their use as chemotherapeutic agents” (The Johns Hopkins University, priority 2011, dated 2015)
Where two headings read alike, the source gives them in different places.

What was measured:
[1] = test system: Hep3B human hepatocellular carcinoma cells; experiment: Hypoxia targeting assay, 5-h exposure then 5 days growth, MTS; type: cell-based; conditions: for IC50: Homo sapiens
Protocol: Hypoxia targeting assay. Hep3B cells, plated in 96-well plates at a density of 3.0×10^3 cells/well, were incubated overnight and then treated with the test compounds for 5.0 hours at under hypoxic (1% O2) or normoxic (21% O2) conditions. Exposure of cells to hypoxia was carried out in a PROOX C-Chamber with O2 and CO2 levels modulated by a PROOX Model C21 Controller (BioSpherix). At the end of the treatment period, the wells were washed with phosphate buffered saline (PBS) and fresh compound-free media was added. The cells were cultured for an additional 5 days under normoxic conditions and then assayed for cell proliferation using the MTS assay.
Hypoxia targeting. Nitroimidazoles are converted to reactive compounds in hypoxic cells. Therefore it is of importance to compare the antiproliferative activities of the nitroimidazole conjugated compounds against Hep3B cells under normoxic and hypoxic conditions. In these experiments, Hep3B cells in culture were treated with each of the conjugated compounds 7c-d, 10c-d, or the parent compounds 3 or 8 for a 5.0-hour period under normoxic (21% O2) or hypoxic (1.0% O2) conditions. After treatment, the cells were returned to normal conditions and assayed for proliferation after 5 days of additional growth. […] The ratio between the IC50 values for each drug under normoxic versus hypoxic culture conditions was computed and used as a measure of the relative increase in potency.

[2] = test system: subcutaneous LNCaP prostate cancer cell explants; experiment: Immunofluorescence analysis of 2-nitroimidazole induced protein adducts in mouse tumor explants; type: in vivo, nude mice; conditions: daily intravenous tail vein injection for three weeks
Protocol: Immunofluorescence analysis of 2-nitroimidazole induced protein adducts in mouse tumor explants. Nude mice with subcutaneous LNCaP prostate cancer cell explants were administered Hydroxyprobe-1, M3N or M3N-PEG-2NI for three weeks by daily intravenous tail vein injection with an additional injection 3 hours prior to euthanization. Tumors were removed from the euthanized mice by dissection and incubated in 30% sucrose/PBS overnight at 4° C. Excess sucrose was removed and the tissue was incubated in 30% sucrose/PBS:OCT (1:1) for 1 hour at room temperature. Afterward the tissue was frozen in 100% OCT. Frozen sections of […] were prepared and fixed in 4% PFA/PBS for 1 hour at room temperature. The sections were blocked overnight at 4° C. with 5% goat serum/PBS or at room temperature for 1 hour and then incubated with Hydroxyprobe-1 rabbit antiserum (1:200) overnight at 4° C. After three washes with PBS, the secondary antibody, mouse anti rabbit-FITC (1:1000) was added for 1 hour at room temperature. The sections were mounted using Vectashield and fluorescently imaged.

[3] = test system: 786-0 human renal adenocarcinoma cells; experiment: MTT cell viability assay, 3 days; type: cell-based; conditions: Homo sapiens, 786-0, 72 h, normoxic conditions, 1% DMSO
Protocol: Additional cell culture, drug treatment and cell viability assays. HT29 human colorectal carcinoma cells, 786-0 human renal adenocarcinoma cells and Hep3B human hepatocellular carcinoma cells were obtained from ATCC and maintained in culture according to their recommendations. […] After the treatment period viability of the cells was determined with the MTT cell viability assay and dose response curves were generated using the calculated values of the percentage viable cells relative to the vehicle control.

[4] = test system: orthotopic HT29 tumor implants; experiment: Orthotopic xenograft of HT29 human colorectal carcinoma in nude mice, systemic treatment; type: in vivo, nude (Nu/Nu) mice
Protocol: Orthotopic Xenograft implantation of HT29 human colorectal carcinoma cells into nude mice. HT29 cells were grown in culture in McCoy's medium until sub-confluent. A single cell suspension of HT29 was then prepared in HBSS and 1×10^7 cells were injected subcutaneously into the flanks of four male T-cell deficient nude (Nu/Nu) mice. Subcutaneous tumors were allowed to grow for 14 days before harvesting and preparation for orthotopic implantation. The mice were euthanized and the subcutaneous tumors were removed using sterile technique. The tumors were divided into 3×3 mm pieces that were kept in phosphate buffered saline (PBS) on ice. T-cell deficient nude (NU/NU) mice (6 male, 5 female) were anesthetized by injecting 0.5 to 1.0 mL of Avertin (20 mM) intraperitoneally in PBS. The abdomen was prepped with 70% ethanol three times and a small nick was made in the skin. The abdominal wall musculature was grasped, lifted, and entered with a single blade of scissors. The single blade of the scissors was used to push the contents of the abdominal cavity away and the incision was extended 2-3 cm. The cecum was identified by its blind ending pouch and exteriorized. The cecum was isolated from the rest of the mouse using pre-cut, sterile gauze and kept moist with warm PBS. A figure of 8 stitches was placed onto the cecum using a 7-0 sized suture and the cecal wall was slightly damaged at the site where the HT29 tumor piece is to be implanted using forceps. An HT29 tumor piece was positioned on the cecum under the stitch and the stitch was then tied. The cecum was returned to the abdominal cavity. Using staples, the mouse abdominal wall musculature and skin was closed and the mouse was allowed to recover from anesthesia.
Systemic treatment with M3N-PEG-2NI (compound 7d). A 40 mM stock solution of M3N-PEG-2NI was prepared by dissolving 0.14 g of M3N-PEG-2NI (MW=616.3 g/mol) in 5.7 mL of CPE. Each day of treatment, 4 T-cell deficient nude mice (2 male, 2 female) bearing orthotopic HT29 tumor implants received 0.1 ml of 20 mM M3N-PEG-2NI via I.V. or I.P. injections. The remaining 4 T-cell deficient nude mice (2 male, 2 female) received 0.1 mL of CPE (FIG. 7) Body weight of mice was monitored every week, until significant body weight change occurred. Then, body weight was measured every other day until day 24. All 8 mice were euthanized on day 24. The mice were dissected and their major organs collected. Special attention was taken in examination of livers since liver metastasis is common in orthotopic colon cancer models.

[5] = test system: HT29 human colorectal carcinoma cells; experiment: Cell viability by plating efficiency (colony formation after replating); type: cell-based; conditions: 40 μM, 48 h, diluted 10,000 fold and replated, colonies stained eight days later
Protocol: FIG. 6 depicts the plating efficiency of HT29 human colorectal carcinoma cells after treatment with DMSO, 40μ M3n and 40μ M3N-PEG-2NI. HT29 cells were treated for 48 h with 40 μM M3N, 40 μM M3N-PEG-2NI or the DMSO vehicle. At the end of the treatment period, the cells were diluted 10,000 fold and replated. Eight days later colonies were stained with methylene blue.
For the further assessment of cell viability by plating efficiency, cells (2×10^6 cells/100 mm dish) from the human colorectal carcinoma cell line HT29 were treated for 48 hours with 40 μM M3N, 40 μM M3N-PEG-2NI or the DMSO vehicle. At the end of the treatment period, the cells from each dish were released by trypsinization, diluted 10,000 fold and replated into new 100 mm dishes. Eight days later colonies were stained with 0.25% methylene blue in 50% ethanol

[6] = 0.1 ml of 20 mM I.V. or I.P., three weeks, euthanized day 24, listed as M3N-PEG-2NI

- IC50 ([1]; hypoxic (1.0% O2), then 5 days normoxic growth, read-out: IC50 Hypoxic (H)): 53.2 ± 8 µM
- IC50 ([1]; normoxic (21% O2), then 5 days growth, read-out: IC50 Normoxic (N)): 60.8 ± 9.4 µM
- IC50 [3]: 10 to 14 µM
SMILES: COc1ccc(C[C@H](C)[C@H](C)Cc2ccc(OC)c(OCCOCCOCCOCCn3ccnc3[N+](=O)[O-])c2)cc1OC (racemic) [Compound 7d, (±)-(2R,3S)-4-(3,4-Dimethoxyphenyl)-1-[4-methoxy-3-[12-(2-nitro-1H-imidazol-1-yl)-1,4,7,10-tetraoxadodecanyl]phenyl]-2,3-dimethylbutane]
- Ratio IC50 (N)/IC50 (H) ([1]; normoxic versus hypoxic): 1.14
- Protein adducts in tumor sections by immunofluorescence [2]: Protein-adducts were also found
- Mean Primary Tumor and Mass ([4]; 0.1 ml of 20 mM I.V. or I.P., three weeks, euthanized day 24, listed as M3N-PEG-2N): 300 ± 140 mg
- Mean Abdominal Cavity Tumor Mass [4, 6]: 75 ± 50 mg
- Mean Primary Tumor and Mass [4, 6]: 300 ± 140 mg
- Body Weight Increase ([4]; 0.1 ml of 20 mM I.V. or I.P., to day 24): 11.3%
- Mean Total Tumor Load ([4]; primary tumor plus total tumor mass, 0.1 ml of 20 mM I.V. or I.P., day 24, listed as M3N-PEG-2NI): 375 ± 150 mg
- Mice that developed liver metastasis ([4]; treated group of 4 mice, day 24): 1 of the 4
- Peritoneal tumors ([4]; treated group, mice 5 (female) and 7 (male)): no peritoneal tumors
- Peritoneal tumors ([4]; treated group, mice 6 (female) and 8 (male)): a single, small peritoneal tumor
- Tumor masses surrounding the kidneys and ovaries, weight each ([4]; treated group, mouse 5): < 100 mg
- Tumor surrounding the ovaries, weight ([4]; treated group, mouse 6): < 100 mg
- Ability of HT29 cells to replicate after treatment (plating efficiency) [5]: unable to replicate
